Legend:
[1] = test system: HCT116 proteome; experiment: Global proteomic identification of braftide-regulated proteins (LC–MS/MS) in HCT116; type: cell-based, human; conditions: HCT116, 10 μM braftide, 1 h
Experimental: HCT116 cells were treated in the absence and presence of 10 μM TAT–braftide, 1 h, 37 °C. Cell pellets were harvested in PBS and cryopreserved. Samples were sent to be lysed and identified through MS in three biological replicates (LC–MS/MS; The Wistar Institute). Data were processed through the previously reported GO analysis via the Panther database ([42]) and plotted on Origin (OriginLab Corporation). For the volcano plot, the cutoff for the presented data is p = 0.01 (∗∗), q value <0.05 (Student's t test value adjusted for multiple comparisons using the Benjamini–Hochberg false discovery rate correction) and detected in at least two or more replicates. A total of 5405 proteins were identified, emphasizing a twofold change in NeonGreen and in red. Source data are available in the supporting information files.

[2] = test system: CRAF–CDC37/HSP90 chaperone complex; experiment: Co-IP of MBP-CRAF-FLAG with endogenous CDC37–HSP90 chaperone complex; type: cell-based, human (HEK293); conditions: HEK293, 50 μM braftide, 4 h, bortezomib pretreatment, three biological replicates
Experimental: HEK293 cells were seeded at 1(10)^6 cells per well for a 6-well plate or 5(10)^6 for 10 cm dishes and incubated until 40% to 60% confluency. Transfection was carried out using a 1:3 DNA:PEI-MAX ratio in OPTI-MEM and allowed 48 h for protein expression. For peptide assays, 48 h post-transfection, cells were treated with TAT–braftide carried in OPTI-MEM at indicated concentrations. Cells were harvested in cold PBS. Harvested cells were lysed in 4% SDS or modified radioimmunoprecipitation assay (RIPA) for co-IP experiments. Quantification of total protein by the bicinchoninic acid assay was carried out according to the manufacturer's protocols (Pierce; catalog no.: 23225).
Transfected HEK293 cells were treated with the indicated treatments and harvested in cold PBS. […] Samples were analyzed via immunoblot.
Western blot band densities were quantified with ImageJ software (National Institutes of Health) and normalized to the indicated loading control. Statistical significance was determined through one-/two-way ANOVA, where indicated, followed by Tukey's honest significant difference post hoc test with corresponding p values (∗p < 0.05, ∗∗p < 0.002, ∗∗∗p < 0.0002, and ∗∗∗∗p < 0.0001). […]

[3] = test system: BRAF–CDC37 interaction; experiment: NanoBiT luminescence CDC37–RAF interaction reporter assay, BRAF^SmBiT–CDC37^LgBiT; type: cell-based, human (HEK293)
From the text: NanoBiT cytomegalovirus MCS BiBiT vector, which contains a BRAF N terminal fused with LgBiT and CRAF N terminal fused with SmBiT, was purchased from Promega. CDC37 LgBiT and CRAF SmBiT was generated using the standard Gibson Assembly (NEB HiFi Assembly) using NanoBiT BiBiT as the vector and following primers: 5′ […] 3′, 5′ […] 3′, 5′ […] 3′, 5′ […] 3′, and CDC37 LgBiT and BRAF SmBiT was generated using the standard Gibson Assembly using NanoBiT BiBiT as the vector and following primers: 5′ […] 3′, 5′ […] 3′, 5′ […] 3′, 5′ […] 3′. Primers were designed to introduce H20A, N22A, I23A triple mutation within the CDC37 FLAG tag and for NanoBiT construct CDC37(HNI/A) LgBit and BRAF SmBiT. Primers were designed to introduce the desired substitutions. The forward primer sequence was 5′ gccgcc[…] 3′, and the reverse primer sequence was 5′ gggggc[…] 3′. Site-directed mutagenesis was carried out using the Q5 Site-Directed Mutagenesis Kit (NEB; E0554) following the manufacturer's protocol.
(§1) Twenty-four hours post-transfection, cells were trypsinized, pelleted, resuspended in OptiMEM + 4% fetal bovine serum, and reseeded onto a 96-well plate at 5(10)^4 cells per well and then incubated at 37 °C overnight. Cells were pretreated with 1 μM bortezomib for 5 h and then braftide for 4 h at 0 and 25 μM. After treatment, 10 μM furimazine substrate was added to each well, and luminescence readings were taken at 470 to 480 nm using a CLARIOstar plate reader. Statistical significance was determined through a paired t test where indicated, followed by Tukey's honest significant difference post hoc test with corresponding p values (∗p < 0.05, ∗∗p < 0.01, and ∗∗∗p < 0.001). All graph bars represent the mean ± SD with individual data points per biological replicate with corresponding p values.

[4] = test system: BRAF–CRAF protein levels; conditions: cited from earlier work
From the text: RAF family members are known clients of the HSP90–CDC37 chaperone complex and rely on their interaction with the CDC37–HSP90 chaperone complex to maintain basal protein stability ([4]). […] Although the HSP90 and CDC37 interface is vast and dynamic ([7]), the αC helix–β4 loop is a well-defined structural motif conserved across RAF and other kinases ([29]). The RAF DIF, being ...

[5] = test system: CRAF–CDC37 interaction; experiment: NanoBiT luminescence CDC37–RAF interaction reporter assay, CRAF^SmBiT–CDC37^LgBiT; type: cell-based, human (HEK293); conditions: HEK293, 25 μM braftide, 4 h, 1 μM bortezomib pretreatment 5 h, 10 μM furimazine, 470 to 480 nm
From the text: NanoBiT cytomegalovirus MCS BiBiT vector, which contains a BRAF N terminal fused with LgBiT and CRAF N terminal fused with SmBiT, was purchased from Promega. CDC37 LgBiT and CRAF SmBiT was generated using the standard Gibson Assembly (NEB HiFi Assembly) using NanoBiT BiBiT as the vector and following primers: 5′ […] 3′, 5′ […] 3′, and CDC37 LgBiT and BRAF SmBiT was generated using the standard Gibson Assembly using NanoBiT BiBiT as the vector and following primers: 5′ […] 3′, 5′ […] 3′. Primers were designed to introduce H20A, N22A, I23A triple mutation within the CDC37 FLAG tag and for NanoBiT construct CDC37(HNI/A) LgBit and BRAF SmBiT. Primers were designed to introduce the desired substitutions. The forward primer sequence was 5′ gccgcc[…] […]
as §1, with “Cells were pretreated with 1 μM bortezomib for 5 h and then braftide for 4 h at 0 and 25 μM.” left out, “All graph bars represent the mean ± SD with individual data points per biological replicate with corresponding p values.” left out

GRKKRRQRRRPQ-miniPEG-TRHVNILLFM [Braftide]
FoldChange Treat/NoTreat, COA3 ([1]; protein COA3 (Q9Y2R0), q-value 1.02E-05, LFQ, missing values imputed): 76.35 | FoldChange Treat/NoTreat, HPX ([1]; protein HPX (P02790), q-value 0.000814707, LFQ): 99.13 | FoldChange Treat/NoTreat, PDK2 ([1]; protein PDK2 (Q15119), q-value 1.74E-05, LFQ, missing values imputed): 40.24 | FoldChange Treat/NoTreat, RNF169 ([1]; protein RNF169 (Q8NCN4), q-value 4.15E-05, LFQ, missing values imputed): 48.52 | FoldChange Treat/NoTreat, TOMM6 ([1]; protein TOMM6 (Q96B49), q-value 1.36E-06, LFQ, missing values imputed): 129.15 | association of CRAF with CDC37 and HSP90 [2]: reduced their association with CDC37 and HSP90 compared with the nontreated control | NanoBiT luminescence, BRAF^SmBiT–CDC37^LgBiT ([3]; HEK293, 25 μM braftide, 4 h, 1 μM bortezomib pretreatment 5 h, 10 μM furimazine, 470 to 480 nm): reduction in luminescence, reflecting a decrease in the CDC37–RAF interaction | protein levels of NanoBiT constructs (immunoblot control) ([3]; HEK293, braftide, bortezomib pretreatment, BRAF and CRAF constructs (Fig. 1, K and M)): protein levels remained the same with bortezomib pretreatment | degradation of BRAF–CRAF protein levels [4]: induces the degradation of BRAF–CRAF protein levels through the ubiquitin-26s proteasomal degradation system | NanoBiT luminescence, CRAF^SmBiT–CDC37^LgBiT [5]: reduction in luminescence, reflecting a decrease in the CDC37–RAF interaction

Source: publication PMC12830207, “Targeting the protein–protein interaction between the CDC37 cochaperone and client kinases by an allosteric RAF dimer breaker” (The Journal of Biological Chemistry, 2025)
